Assay results from paper PMC10504751, “Chalcone/1,3,4-Oxadiazole/Benzimidazole hybrids as novel anti-proliferative agents inducing apoptosis and inhibiting EGFR & BRAFV^600E” (BMC Chemistry, 2023).
Like-named read-outs stand apart in the source and are kept apart here.

How the values were obtained:
[1] = tested on: A-549; test: Propidium iodide anti-proliferative assay; assay type: cell-based; settings: Homo sapiens, A549; 48 h incubation; read-out: IC50 ± SEM A-549
Method: (§1) The propidium iodide (PI) tests^31, 32 were further used for assessment of the IC50 of all synthesized compounds and compared to Doxorubicin as a positive control against four cancer cell lines; pancreatic cancer cell line (Panc-1), epithelial line cancer cell (A-549), breast cancer cell line (MCF-7), and colon cancer cell line (HT-29).
(§2) Using the propidium iodide fluorescence assay with doxorubicin as the reference drug, IC50 of the 24 compounds 7a-x, was carried out according to a previously reported procedure^31, 32 against a panel of four human cancer cell lines; epithelial cancer cell line (A-549), breast cancer cell line (MCF-7), colon cancer cell line (HT-29) and pancreas cancer cell line (Panc-1). Compounds 7a-x were incubated with cancer cells for 2 days at different concentrations. See Appendix A.
(§3) To explore the antiproliferative potential of compounds propidium iodide fluorescence assay was performed using different cell lines (melanoma cancer cell line LOX-IMVI, pancreatic cancer cell line (Panc-1), epithelial line cancer cell (A-549), breast cancer cell line (MCF-7), and colon cancer cell line (HT-29). To calculate the total nuclear DNA, a fluorescent dye (propidium iodide, PI) is used which can attach to the DNA,^9,^10 thus offering a quick and precise technique. PI cannot pass through the cell membrane and its signal intensity can be considered as directly proportional to the quantity of cellular DNA. Cells whose cell membranes are damaged or have changed permeability are counted as dead ones. The assay was performed by seeding the cells of different cancer cell lines at a density of 3000-7500 cells/well (in 200µl medium) in culture plates followed by incubation for 24h at 37 °C in humidified 5% CO2/95% air atmospheric conditions. The medium was removed; the compounds were added to the plates at 10 µM concentrations (in 0.1% DMSO) in triplicates, followed by incubation for 48 h. DMSO (0.1%) was used as control. After incubation, medium was removed followed by the addition of PI (25 µl, 50µg/mL in water/medium) to each well of the plates. At -80 °C, the plates were allowed to freeze for 24 h, followed by thawing at 25 °C. A fluorometer (Polar-Star BMG Tech) was used to record the readings at excitation and emission wavelengths of 530 and 620 nm for each well. The percentage cytotoxicity of compounds was calculated using the following formula:
(§4) Where ATC= Absorbance of treated cells and AC= Absorbance of control. […]

[2] = tested on: MCF-7; test: Propidium iodide anti-proliferative assay; assay type: cell-based; settings: Homo sapiens, MCF7; 48 h incubation; read-out: IC50 ± SEM MCF-7
Method: as §1, §2, §3, §4

[3] = tested on: HT-29; test: Propidium iodide anti-proliferative assay; assay type: cell-based; settings: Homo sapiens, 48 h incubation, read-out: IC50 ± SEM HT-29
Method: as §1, §2, §3, §4

[4] = tested on: Panc-1; test: Propidium iodide anti-proliferative assay; assay type: cell-based; settings: Homo sapiens, 48 h incubation, read-out: IC50 ± SEM Panc-1
Method: as §1, §2, §3, §4

[5] = tested on: HS 578T; test: NCI one-dose SRB anti-proliferative screen; assay type: cell-based; settings: Homo sapiens, read-out: Cell growth inhibition %
Method: (§5) The twenty-four synthesized compounds were submitted to the National Cancer Institute (NCI), USA. Eighteen hybrids 7a-h, 7k-r, 7u, and 7v were selected by NCI for one-dose assessment of their anti-proliferative activities at 10 µM dose by Sulforhodamine B colorimetric assay. The assessment was performed in 60 cell lines derived from nine tumor subpanels, comprising lung, leukemia, melanoma, colon, renal, CNS, prostate, breast, and ovarian cancer cell lines.
(§6) The methodology of the NCI anti-proliferative screening has been described in details elsewhere (http://www.dtp.nci.nih.gov).

[6] = tested on: MDA-MB-468; test: NCI one-dose SRB anti-proliferative screen; assay type: cell-based; settings: Homo sapiens, read-out: Cell growth inhibition %
Method: as §5, §6

[7] = tested on: NCI-H460; test: NCI one-dose SRB anti-proliferative screen; assay type: cell-based; settings: Homo sapiens, read-out: Cell growth inhibition %
Method: as §5, §6

[8] = tested on: SF-268; test: NCI one-dose SRB anti-proliferative screen; assay type: cell-based; settings: Homo sapiens, read-out: Cell growth inhibition %
Method: as §5, §6

[9] = tested on: HOP-92; test: NCI one-dose SRB anti-proliferative screen; assay type: cell-based; settings: Homo sapiens, read-out: Cell growth inhibition %
Method: as §5, §6

[10] = tested on: SNB-19; test: NCI one-dose SRB anti-proliferative screen; assay type: cell-based; settings: Homo sapiens, read-out: Cell growth inhibition %
Method: as §5, §6

[11] = tested on: RPMI-8226; test: NCI one-dose SRB anti-proliferative screen; assay type: cell-based; settings: Homo sapiens, read-out: Cell growth inhibition %
Method: as §5, §6

[12] = tested on: CAKI-1; test: NCI one-dose SRB anti-proliferative screen; assay type: cell-based; settings: Homo sapiens, read-out: Cell growth inhibition %
Method: as §5, §6

[13] = tested on: IGROV1; test: NCI one-dose SRB anti-proliferative screen; assay type: cell-based; settings: Homo sapiens, IGROV-1, read-out: Cell growth inhibition %
Method: as §5, §6

[14] = tested on: SF-295; test: NCI one-dose SRB anti-proliferative screen; assay type: cell-based; settings: Homo sapiens, read-out: Cell growth inhibition %
Method: as §5, §6

[15] = tested on: SNB-75; test: NCI one-dose SRB anti-proliferative screen; assay type: cell-based; settings: Homo sapiens, read-out: Cell growth inhibition %
Method: as §5, §6

[16] = tested on: HT29; test: NCI one-dose SRB anti-proliferative screen; assay type: cell-based; settings: Homo sapiens, HT-29, read-out: Cell growth inhibition %
Method: as §5, §6

[17] = tested on: MOLT-4; test: NCI one-dose SRB anti-proliferative screen; assay type: cell-based, human; settings: for inhibition at 10 µM: Homo sapiens, read-out: Cell growth inhibition %
Method: as §5, §6

[18] = tested on: K-562; test: NCI one-dose SRB anti-proliferative screen; assay type: cell-based, human; settings: for inhibition at 10 µM: Homo sapiens, K562, read-out: Cell growth inhibition %
Method: as §5, §6

[19] = tested on: HCT-116; test: NCI one-dose SRB anti-proliferative screen; assay type: cell-based, human; settings: for inhibition at 10 µM: Homo sapiens, read-out: Cell growth inhibition %
Method: as §5, §6

[20] = tested on: RXF 393; test: NCI one-dose SRB anti-proliferative screen; assay type: cell-based, human; settings: Homo sapiens, read-out: Cell growth inhibition %
Method: as §5, §6

[21] = tested on: T-47D; test: NCI one-dose SRB anti-proliferative screen; assay type: cell-based, human; settings: for inhibition at 10 µM: Homo sapiens, T47D, read-out: Cell growth inhibition %
Method: as §5, §6

[22] = HS 578T (Breast Cancer), NCI one dose 10 µM
[23] = MDA-MB-468 (Breast Cancer), NCI one dose 10 µM
[24] = NCI-H460 (Non-Small Cell Lung Cancer), NCI one dose 10 µM
[25] = SF-268 (CNS Cancer), NCI one dose 10 µM
[26] = HOP-92 (Non-Small Cell Lung Cancer), NCI one dose 10 µM
[27] = SNB-19 (CNS Cancer), NCI one dose 10 µM
[28] = RPMI-8226 (Leukemia), NCI one dose 10 µM
[29] = CAKI-1 (Renal Cancer), NCI one dose 10 µM
[30] = IGROV1 (Ovarian Cancer), NCI one dose 10 µM
[31] = SF-295 (CNS Cancer), NCI one dose 10 µM
[32] = SNB-75 (CNS Cancer), NCI one dose 10 µM
[33] = HT29 (Colon Cancer), NCI one dose 10 µM
[34] = MOLT-4 (Leukemia), NCI one dose 10 µM
[35] = K-562 (Leukemia), NCI one dose 10 µM
[36] = HCT-116 (Colon Cancer), NCI one dose 10 µM
[37] = RXF 393 (Renal Cancer), NCI one dose 10 µM
[38] = T-47D (Breast Cancer), NCI one dose 10 µM

Compound: COc1ccc(-c2nc3cc(-c4nnc(SCC(=O)Nc5ccc(C(=O)/C=C/c6ccccc6)cc5)o4)ccc3[nH]2)cc1 [Compound 7k, 2-{5-[2-(4-Methoxyphenyl)-1 H-benzo[d]imidazol-5-yl]-1,3,4-oxadiazol-2-ylthio}-N-{4-[(E)-3-phenylacryloyl]phenyl}acetamide]
- IC50 [1]: 1200 ± 200 nM
- IC50 [2]: 950 ± 80 nM
- IC50 [3]: 1400 ± 200 nM
- IC50 [4]: 1300 ± 200 nM
- inhibition at 10 µM ([5]; HS 578T, Breast cancer, NCI one dose): 7.69%
- inhibition at 10 µM ([6]; MDA-MB-468, Breast cancer, NCI one dose): 19.5%
- inhibition at 10 µM ([7]; NCI-H460, Non-Small Cell Lung Cancer, NCI one dose): 6.61%
- inhibition at 10 µM ([8]; SF-268, CNS Cancer, NCI one dose): 17.1%
- inhibition at 10 µM ([9]; HOP-92, Non-Small Cell Lung Cancer, NCI one dose): 20.3%
- inhibition at 10 µM ([10]; SNB-19, CNS Cancer, NCI one dose): 0%
- inhibition at 10 µM ([11]; RPMI-8226, Leukemia, NCI one dose): 86.7%
- inhibition at 10 µM ([12]; CAKI-1, Renal cancer, NCI one dose): 14.1%
- inhibition at 10 µM ([13]; IGROV1, Ovarian Cancer, NCI one dose): 2.63%
- inhibition at 10 µM ([14]; SF-295, CNS Cancer, NCI one dose): 17.8%
- inhibition at 10 µM ([15]; SNB-75, CNS Cancer, NCI one dose): 33.7%
- inhibition at 10 µM ([16]; HT29, Colon cancer, NCI one dose): 14.1%
- inhibition at 10 µM ([17]; MOLT-4, Leukemia, NCI one dose): 53%
- Growth Percent ([17]; MOLT-4 (Leukemia), 10 µM one dose): 47%
- inhibition at 10 µM ([18]; K-562, Leukemia, NCI one dose): 44.6%
- Growth Percent ([18]; K-562 (Leukemia), 10 µM one dose): 55%
- Growth Percent ([19]; HCT-116 (Colon Cancer), 10 µM one dose): 58.69%
- inhibition at 10 µM ([19]; HCT-116, Colon cancer, NCI one dose): 41.3%
- inhibition at 10 µM ([20]; RXF 393, Renal cancer, NCI one dose): 37.9%
- inhibition at 10 µM ([21]; T-47D, Breast cancer, NCI one dose): 58%
- Growth Percent ([21]; T-47D (Breast Cancer), 10 µM one dose): 42.05%

Compound: COc1ccc(/C=C/C(=O)c2ccc(NC(=O)CSc3nnc(-c4ccc5[nH]c(-c6ccc(OC)c(OC)c6)nc5c4)o3)cc2)cc1 [Compound 7r, 2-{5-[2-(3,4-Dimethoxyphenyl)-1 H-benzo[d]imidazol-5-yl]-1,3,4-oxadiazol-2-ylthio}-N-{4-[(E)-3-(4-methoxyphenyl)acryloyl]phenyl}acetamide]
- IC50 [1]: 3600 ± 500 nM
- IC50 [2]: 3100 ± 500 nM
- IC50 [3]: 4200 ± 500 nM
- IC50 [4]: 3900 ± 500 nM
- inhibition at 10 µM [5, 22]: 13.2%
- inhibition at 10 µM [6, 23]: 0%
- inhibition at 10 µM [7, 24]: 0%
- inhibition at 10 µM [8, 25]: 0%
- inhibition at 10 µM [9, 26]: 5.88%
- inhibition at 10 µM [10, 27]: 0%
- inhibition at 10 µM [11, 28]: 14.7%
- inhibition at 10 µM [12, 29]: 0.08%
- inhibition at 10 µM [13, 30]: 2.07%
- inhibition at 10 µM [14, 31]: 3.2%
- inhibition at 10 µM [15, 32]: 1.88%
- inhibition at 10 µM [16, 33]: 0%
- inhibition at 10 µM [17, 34]: 34.5%
- inhibition at 10 µM [18, 35]: 21.9%
- inhibition at 10 µM [19, 36]: 3.79%
- inhibition at 10 µM [20, 37]: 0%
- inhibition at 10 µM [21, 38]: 28.9%

Compound: O=C(CSc1nnc(-c2ccc3[nH]c(-c4ccc(Cl)cc4)nc3c2)o1)Nc1ccc(C(=O)/C=C/c2ccc(Cl)cc2)cc1 [Compound 7g, 2-{5-[2-(4-Chlorophenyl)-1 H-benzo[d]imidazol-5-yl]-1,3,4-oxadiazol-2-ylthio}-N-{4-[(E)-3-(4-chlorophenyl)acryloyl]phenyl}acetamide]
- IC50 [1]: 1800 ± 600 nM
- IC50 [2]: 1450 ± 300 nM
- IC50 [3]: 2100 ± 600 nM
- IC50 [4]: 1900 ± 500 nM
- inhibition at 10 µM [5, 22]: 11%
- inhibition at 10 µM [6, 23]: 0%
- inhibition at 10 µM [7, 24]: 0%
- inhibition at 10 µM [8, 25]: 0.08%
- inhibition at 10 µM [9, 26]: 5.81%
- inhibition at 10 µM [10, 27]: 0.54%
- inhibition at 10 µM [11, 28]: 95%
- inhibition at 10 µM [12, 29]: 16.4%
- inhibition at 10 µM [13, 30]: 14.4%
- inhibition at 10 µM [14, 31]: 7.04%
- inhibition at 10 µM [15, 32]: 9.09%
- inhibition at 10 µM [16, 33]: 0%
- inhibition at 10 µM [17, 34]: 22.2%
- inhibition at 10 µM [18, 35]: 18.6%
- inhibition at 10 µM [19, 36]: 22.2%
- inhibition at 10 µM [20, 37]: 0%
- inhibition at 10 µM [21, 38]: 12.9%
